In patent publication US10294218B2 (VIROSTATICS SRL, priority 2012, dated 2019):
Where two headings read alike, the source gives them in different places.

Assays:
[1] = tested on: laboratory strain of HIV-1; assay: Antiviral activity against HIV (AV), p24 in infected activated primary T cells; assay type: cell-based; conditions: for IC50: Human immunodeficiency virus 1, T-cell, read-out: AV50 (Inhibitory concentration 50% for antiviral activity); for antiviral and antiproliferative activity and cytotoxicity profile (in words): summary of AV, AP and cytotoxicity assays
Description: Activated primary T cells are infected with a laboratory strain of HIV-1, then cultured and exposed to different concentrations of the test compounds. HIV replication is analysed by measuring the viral protein p24 and expressed as percentage of untreated control. Inhibition of viral replication (AV) is then calculated (AV=100 minus the % p24 compared to control, AV of control=0%). Inhibitory concentration 50% for antiviral activity (AV50) is calculated.
(§1) In Tables 2, 3 and 4, ND means Not Determined.

[2] = tested on: Primary T cells; assay: Antiproliferative activity (AP), mitotic index by flow cytometry; assay type: cell-based; conditions: T-cell, read-out: AP50 (Inhibitory concentration 50% for antiproliferative capacity)
Description: Primary T cells are cultured and exposed to different concentrations of the test compounds. Cell proliferation is analysed by measuring mitotic index (ie the number of cell divisions a population of cells undergoes) through flow cytometry based techniques. Mitotic index is expressed as percentage of untreated control. Inhibition of cell proliferation (AP) is then calculated (AP=100 minus % mitotic index compared to control, AP of control=0%). Inhibitory concentration 50% for antiproliferative capacity (AP50) is calculated.
as §1

Compound	IC50 ([1]; HIV-1 infected activated primary T cells, p24)	antiviral and antiproliferative activity and cytotoxicity profile (in words) [1]	IC50 ([2]; primary T cells, mitotic index)	IC50 [1]	IC50 [2]
COc1ccc(Nc2cc(-c3ccccc3OC)ncn2)cc1OC(=O)C(C)(C)C [Example 26, 2-methoxy-5-(6-(2-methoxyphenyl)pyrimidin-4-ylamino)phenyl pivalate]	100 nM	good antiviral and antiproliferative activity and a good cytotoxicity profile	100 nM		
COc1ccc(Nc2cc(-c3ccccc3OC)ncn2)cc1C(=O)NCc1ccncc1 [Example 28, 2-Methoxy-5-(6-(2-methoxyphenyl)pyrimidin-4-ylamino)-N-(pyridin-4-ylmethyl)benzamide]				> 500 nM	> 500 nM
COc1ccc(Nc2cc(-c3ccccc3OC)ncn2)cc1C=O [Example 29, 2-Methoxy-5-(6-(2-methoxyphenyl)pyrimidin-4-ylamino)benzaldehyde]			> 500 nM	> 500 nM	
COC(=O)c1cc(Nc2cc(-c3ccccc3OC)ncn2)ccc1OC [Example 30, Methyl 2-methoxy-5-(6-(2-methoxyphenyl)pyrimidin-4-ylamino)benzoate]			> 500 nM	> 1500 nM	
COc1ccc(Nc2cc(-c3ccccc3OC)ncn2)cc1Cn1cnc2ccccc21 [Example 31, N-(3-((1H-Benzo[d]imidazol-1-yl)methyl)-4-methoxyphenyl)-6-(2-methoxyphenyl)pyrimidin-4-amine]		good antiviral and antiproliferative activity and a good cytotoxicity profile		200 nM	350 nM
COc1ccc(Nc2cc(-c3ccccc3OC)ncn2)cc1O [Example 32, 2-Methoxy-5-(6-(2-methoxyphenyl)pyrimidin-4-ylamino)phenol]		good antiviral and antiproliferative activity and a good cytotoxicity profile	70 nM	150 nM	
COc1ccccc1-c1cc(Nc2ccc(N3CCN(C)CC3)c(S(N)(=O)=O)c2)ncn1 [Example 38, 5-(6-(2-Methoxyphenyl)pyrimidin-4-ylamino)-2-(4-methylpiperazin-1-yl)benzenesulfonamide]			> 500 nM	< 1500 nM	
CCOc1ccc(Nc2cc(-c3ccccc3OC)ncn2)cc1Cn1cnc2ccccc21 [Example 39, N-(3-((1H-Benzo[d]imidazol-1-yl)methyl)-4-ethoxyphenyl)-6-(2-methoxyphenyl)pyrimidin-4-amine]			300 nM	> 1000 nM	
COc1ccccc1-c1cc(Nc2ccc(F)c(Cn3cnc4ccccc43)c2)ncn1 [Example 40, N-(3-((1H-Benzo[d]imidazol-1-yl)methyl)-4-fluorophenyl)-6-(2-methoxyphenyl)pyrimidin-4-amine]			> 200 nM	500 nM	
COc1ccc(Nc2cc(-c3ccccc3OC)ncn2)cc1N [Example 41, 4-Methoxy-N1-(6-(2-methoxyphenyl)pyrimidin-4-yl)benzene-1,3-diamine]		good antiviral and antiproliferative activity and a good cytotoxicity profile		60 nM	80 nM
COc1ccc(Nc2cc(-c3ccccc3OC)ncn2)cc1CN [Example 43, N-(3-(Aminomethyl)-4-methoxyphenyl)-6-(2-methoxyphenyl)pyrimidin-4-amine]		good antiviral and antiproliferative activity and a good cytotoxicity profile	500 nM		
COc1ccc(Nc2cc(-c3ccccc3OC)ncn2)cc1C(N)=O [Example 45, 2-methoxy-5-(6-(2-methoxyphenyl)pyrimidin-4-ylamino)benzamide]		good antiviral and antiproliferative activity and a good cytotoxicity profile		50 nM	80 nM
COc1ccc(Nc2cc(-c3ccc(F)cc3OC)ncn2)cc1N [Example 64]		good antiviral and antiproliferative activity and a good cytotoxicity profile	< 80 nM	5000 nM	
